Reference: paper PMC6158019 (Cancer cell, 2018)
Like-named read-outs stand apart in the source and are kept apart here.

Experiments:
[1] = tested on: RMS cell lines (RD cells); assay: Cell cycle; assay type: cell-based, human; settings: 1 μM AZD1775, 24 or 48 hr
[2] = tested on: RMS orthotopic xenografts SJRHB000026_X1, SJRHB012_Y, SJRHB013757_X2, SJRHB013759_X1; assay type: in vivo, mouse; settings: single-agent groups
[3] = tested on: RMS cell lines and primary cultures of O-PDX cells; assay: General drug screening; assay type: cell-based, human; settings: for in vitro activity in RMS O-PDX drug screening: primary cultures of RMS O-PDXs and cell lines
[4] = mouse, in vivo
[5] = Abemaciclib plasma and tumor PK in tumor-bearing mice; settings: female, athymic nude, mouse, po, 50 mg/kg
[6] = ref Patnaik et al., 2016, cited from earlier work
[7] = abemaciclib, mice; ref Raub et al., 2015; cited from earlier work
RMS O-PDXs = settings: previous preclinical phase 2 studies; ref Stewart et al., 2017; cited from earlier work
[8] = ref palbociclib FDA NDA reviews, cited from earlier work
in vivo [9] = settings: female, athymic nude
[10] = Palbociclib human plasma PK; assay type: in vivo; settings: patients, 125 mg PO QD, standard calculations
[11] = mice, ref Parrish et al., 2015; cited from earlier work
[12] = Ganetespib plasma and tumor PK in tumor-bearing mice; assay type: in vivo, mouse; settings: for half-life: female, athymic nude, mouse, iv, 150 mg/kg
[13] = ref Goldman et al., 2013, cited from earlier work
[14] = species not stated; cited from earlier work
[15] = Preclinical phase 1 tolerability study; settings: GSP 10 mg/kg, AZD1775 60 mg/kg twice daily, in combination regimens
[16] = cited from earlier work; for mean plasma CL/F: population PK
[17] = Trametinib human plasma PK; assay type: in vivo; settings: patients, standard calculations
in vivo [18] = settings: female, athymic nude, mouse, po, 0.1 mg/kg

C=CCn1c(=O)c2cnc(Nc3ccc(N4CCN(C)CC4)cc3)nc2n1-c1cccc(C(C)(C)O)n1 [AZD1775]
cell cycle and nuclear effects [1]: G2/M phase arrest, mitotic catastrophe, and nuclear fragmentation | overall survival compared with placebo [2]: not different from placebo | in vitro activity in RMS O-PDX drug screening [3]: significant in vitro activity

CCN1CCN(Cc2ccc(Nc3ncc(F)c(-c4cc(F)c5nc(C)n(C(C)C)c5c4)n3)nc2)CC1 [abemaciclib]
rounded and recommended MED ([4]; female, athymic nude): 7.5-15 mg/kg PO BID | plasma AUC lower than that reported by Tate ([4]; female, athymic nude, po, 50 mg/kg): ~ 3.8 fold | murine equivalent dose (MED) providing a similar total plasma AUC [4]: 14.4 mg/kg | half-life ([5]; plasma): 5.2 h | half-life ([5]; tumor): 5.98 h | geometric mean total plasma AUCtau at steady state ([6]; 200 mg PO BID): 3000 ng·h/mL | geometric mean trough concentration ([6]; 200 mg PO BID): 197 ng/mL | maximum tolerated dose (MTD) ([6]; Phase 1, single agent, continuous): 200 mg PO BID | mean in vitro fraction unbound in the plasma (Fu,p) [7]: 0.054

CC(C)C[C@H](NC(=O)[C@H](Cc1ccccc1)NC(=O)c1cnccn1)B(O)O [bortezomib]
efficacy in vivo (RMS O-PDXs): failed to show efficacy in vivo

CC(=O)c1c(C)c2cnc(Nc3ccc(N4CCNCC4)cn3)nc2n(C2CCCC2)c1=O [palbociclib]
estimated total plasma AUCtau at steady state ([8]; patients, 125 mg PO QD): 2080 ng·h/mL | mean plasma CL/F ([8]; typical patient, population PK): 60.2 L/h | back-estimated mouse plasma Cavg (in vivo [9]; 10 mg/kg): 76.9 ng/mL | murine equivalent dose (MED) (in vivo [9]; mouse): 10 mg/kg | CL/F (in vivo [9]; mouse, po, 16 mg/kg): 91.2 mL/min/kg | Kp (in vivo [9]; mouse, po, 16 mg/kg): ~6 | half-life (in vivo [9]; mouse, po, 16 mg/kg): 2.61 h | estimated total plasma Cavg,ss [10]: about 85 ng/mL | apparent terminal half-life (T1/2), literature [11]: approximately 3.4 hr

CC(C)c1cc(-c2n[nH]c(=O)n2-c2ccc3c(ccn3C)c2)c(O)cc1O [ganetespib]
overall survival compared with placebo [2]: not different from placebo | increase in plasma Cmax for a 3-fold increase in dose ([12]; 50 to 150 mg/kg IV, 10 min after injection, data not shown): ~17 fold | half-life ([12]; plasma): 2.03 h | half-life ([12]; tumor): 8.42 h | murine equivalent dose (MED) providing a similar total plasma AUCinf ([12]; vs human 200 mg/m^2): 12.8 mg/kg | recommended Phase 2 dose (RP2D) ([13]; IV once weekly for 3 weeks of a 4-week cycle): 200 mg/m^2 | estimated human total plasma AUCinf ([13]; at 200 mg/m^2): approximately 7000 hr-ng/mL | major adverse events ([13]; patients): diarrhea and fatigue | plasma protein binding [14]: high | tolerability [15]: well tolerated in all groups | sensitivity of RMS cells relative to other pediatric solid tumors ([3]; RMS cell lines and primary cultures of O-PDX cells): more sensitive | in vitro activity in RMS O-PDX drug screening [3]: significant in vitro activity

CC(=O)Nc1cccc(-n2c(=O)n(C3CC3)c(=O)c3c(Nc4ccc(I)cc4F)n(C)c(=O)c(C)c32)c1 [trametinib]
mean AUC ([16]; across genders, 2 mg PO QD, ref Ouellet et al., 2016): 365 ng·h/mL | maximum tolerated dose (MTD) ([16]; putative single agent): 2 mg PO QD | mean plasma CL/F ([16]; typical female patient, ref Ouellet et al., 2016): 4.91 L/h | mean plasma CL/F ([16]; typical male patient, ref Ouellet et al., 2016): 6.19 L/h | estimated total plasma Cavg,ss [17]: about 15.1 ng/mL | Kp (in vivo [18]): 5.49

Cc1[nH]c2ccccc2c1CCNCc1ccc(/C=C/C(=O)NO)cc1 [panobinostat]
efficacy in vivo (RMS O-PDXs): failed to show efficacy in vivo
